# From paper doi:10.1101/2024.01.22.576576v1, “Phenotypic screening of covalent compound libraries identifies chloromethyl ketone antibiotics and MiaA as a new target” (biorxiv, 2024)
# Like-named read-outs stand apart in the source and are kept apart here.
# Key:
# [1] = system: T1, S. flexneri M90T; experiment: microbe, parasite or virus in culture; parameters: species or system bacterial strain; broth microdilution MIC, OD600, lowest concentration without visible bacterial growth; conditions: Shigella flexneri, read-out: MIC SF
# T1 construct: M90T
# Protocol: (§1) MIC measurement. The minimum inhibitory concentrations (MICs) of compounds were measured using the broth microdilution method.1 One stab using 10 µL tip from bacteria glycerol stock was inoculated into 5 mL of LB supplemented with selection antibiotics (Kanamycin for Keio collections and chloramphenicol for ASKA collections), and the culture was incubated at 37 °C with shaking overnight. […] The plate was incubated at 37 °C for 16 ~ 20 h with shaking at 80 rpm and the OD600 was measured using Cytation 5 plate reader (BioTek). MIC was determined as the lowest concentration for which no bacterial growth was observed. LB was used as the growth media for all the bacteria strains unless otherwise mentioned. For S. aureus and A. baumannii strains, tryptic soy broth (TSB, BD, DF0370-17-3) was used as the growth media instead of LB. For P. aeruginosa and K. pneumoniae strains, nutrient broth (NB, RPI, N15100) was used as growth media. All MIC measurements were performed in at least biological duplicates.
# [2] = system: T2, S. aureus MSSA476; experiment: microbe, parasite or virus in culture; parameters: species or system bacterial strain; broth microdilution MIC, OD600, lowest concentration without visible bacterial growth; conditions: Staphylococcus aureus, MSSA476, read-out: MIC SA
# T2 construct: MSSA476
# Protocol: as §1
# [3] = system: T3, E. coli JPN15; experiment: microbe, parasite or virus in culture; parameters: species or system bacterial strain; broth microdilution MIC, OD600, lowest concentration without visible bacterial growth; conditions: Escherichia coli, JPN15, read-out: MIC EC
# T3 construct: JPN15 (EPEC)
# Protocol: as §1
# [4] = system: T4, V. cholerae SAD30; experiment: microbe, parasite or virus in culture; parameters: species or system bacterial strain; broth microdilution MIC, OD600, lowest concentration without visible bacterial growth; conditions: Vibrio cholerae, SAD30, read-out: MIC VC
# T4 construct: SAD30
# Protocol: as §1
# [5] = system: S. flexneri M90T; experiment: microbe, parasite or virus in culture; conditions: Shigella flexneri, read-out: MIC SF
# Protocol: as §1
# [6] = molecular target: T5, Sf_MiaA (Shigella flexneri, UniProt P59197); experiment: i6A-37 tRNA formation followed by LC-MS after preincubation; format: biochemical; conditions: covalent; Cys273; tRNA-Trp 34-mer substrate
# T5 construct: gene miaA; recombinant, purified from E. coli BL21; two cysteines in total; also native protein in live S. flexneri M90T (ABPP row)
# T5 sequence (P59197 1-316): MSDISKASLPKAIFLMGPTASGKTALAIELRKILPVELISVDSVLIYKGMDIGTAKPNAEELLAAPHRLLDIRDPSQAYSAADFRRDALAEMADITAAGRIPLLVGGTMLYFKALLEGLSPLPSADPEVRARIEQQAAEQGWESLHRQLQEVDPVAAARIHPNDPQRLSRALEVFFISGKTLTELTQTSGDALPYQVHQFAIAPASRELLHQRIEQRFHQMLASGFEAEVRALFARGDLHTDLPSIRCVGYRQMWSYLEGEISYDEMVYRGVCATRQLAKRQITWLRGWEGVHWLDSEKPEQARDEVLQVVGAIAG
# Protocol: i6A-37 tRNA formation followed by LC-MS after preincubation on Sf_MiaA | preincubation of 10-F05 with MiaA decreased the initial velocity of modified tRNA forming rate
# [7] = molecular target: T5, Sf_MiaA; experiment: in-gel fluorescence competition with 5-TMRIA; format: binding; conditions: covalent; Cys273; 1 h preincubation
# [8] = molecular target: T6, Sa_FabH (Staphylococcus aureus, UniProt Q6GAU3); experiment: in-gel fluorescence competition with 5-TMRIA; format: binding; conditions: covalent
# T6 construct: gene fabH; purified protein
# T6 sequence (Q6GAU3 1-313): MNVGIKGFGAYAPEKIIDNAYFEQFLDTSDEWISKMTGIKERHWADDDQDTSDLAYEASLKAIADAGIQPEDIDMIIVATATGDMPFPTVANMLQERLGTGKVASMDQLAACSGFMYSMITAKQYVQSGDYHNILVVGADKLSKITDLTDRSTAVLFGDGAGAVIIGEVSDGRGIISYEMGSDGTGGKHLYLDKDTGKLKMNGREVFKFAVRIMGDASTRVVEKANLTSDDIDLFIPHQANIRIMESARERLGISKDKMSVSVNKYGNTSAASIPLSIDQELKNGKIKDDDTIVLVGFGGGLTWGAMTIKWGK
# [9] = molecular target: T7, Sf_FabH (Shigella flexneri, UniProt Q83RS8); experiment: in-gel fluorescence competition with 5-TMRIA; format: binding; conditions: covalent; 1 h preincubation
# T7 construct: gene fabH; recombinant, purified from E. coli BL21; also native protein in live S. flexneri M90T (ABPP rows)
# T7 sequence (Q83RS8 1-317): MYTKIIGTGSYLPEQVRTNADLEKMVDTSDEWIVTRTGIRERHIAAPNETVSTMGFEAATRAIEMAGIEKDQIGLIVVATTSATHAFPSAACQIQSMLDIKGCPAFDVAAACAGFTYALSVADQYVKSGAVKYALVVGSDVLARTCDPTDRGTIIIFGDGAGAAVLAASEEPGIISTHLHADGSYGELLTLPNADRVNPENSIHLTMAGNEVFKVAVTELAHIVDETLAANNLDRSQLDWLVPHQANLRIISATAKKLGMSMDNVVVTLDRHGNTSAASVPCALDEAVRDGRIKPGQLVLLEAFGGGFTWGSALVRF
# [10] = molecular target: T8, Sf_PdxY (Shigella flexneri, UniProt Q83KY1); experiment: in-gel fluorescence competition with 5-TMRIA; format: binding; conditions: covalent; 1 h preincubation
# T8 construct: gene pdxY; recombinant, purified from E. coli BL21; also native protein in live S. flexneri M90T (ABPP row)
# T8 sequence (Q83KY1 1-287): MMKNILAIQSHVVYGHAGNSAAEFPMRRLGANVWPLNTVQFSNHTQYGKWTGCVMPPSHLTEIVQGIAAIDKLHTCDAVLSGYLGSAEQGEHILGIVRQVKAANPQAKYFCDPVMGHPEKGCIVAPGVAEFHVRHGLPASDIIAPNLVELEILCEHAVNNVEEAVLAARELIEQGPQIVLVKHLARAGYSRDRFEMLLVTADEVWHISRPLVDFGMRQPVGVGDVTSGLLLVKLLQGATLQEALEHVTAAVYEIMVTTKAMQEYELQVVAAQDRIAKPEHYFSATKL
# [11] = system: T9, P. aeruginosa BAA-2110; experiment: microbe, parasite or virus in culture; parameters: species or system bacterial strain; broth microdilution MIC, OD600, lowest concentration without visible bacterial growth; conditions: Pseudomonas aeruginosa, BAA2110, read-out: 10-F05 MIC µM
# T9 construct: BAA-2110
# Protocol: as §1
# [12] = system: T10, K. pneumoniae 700603; experiment: microbe, parasite or virus in culture; parameters: species or system bacterial strain; broth microdilution MIC, OD600, lowest concentration without visible bacterial growth; conditions: Klebsiella pneumoniae, 700603, read-out: 10-F05 MIC µM
# T10 construct: 700603
# Protocol: as §1
# [13] = system: T11, A. baumannii BAA-1790; experiment: microbe, parasite or virus in culture; parameters: species or system bacterial strain; broth microdilution MIC, OD600, lowest concentration without visible bacterial growth; conditions: Acinetobacter baumannii, BAA1790, read-out: 10-F05 MIC µM
# T11 construct: BAA-1790
# Protocol: as §1
# [14] = system: T12, E. cloacae 13047; experiment: microbe, parasite or virus in culture; parameters: species or system bacterial strain; broth microdilution MIC, OD600, lowest concentration without visible bacterial growth; conditions: Enterobacter cloacae, 13047, read-out: 10-F05 MIC µM
# T12 construct: 13047
# Protocol: as §1
# [15] = system: T13, K. pneumoniae 13883; experiment: microbe, parasite or virus in culture; parameters: species or system bacterial strain; broth microdilution MIC, OD600, lowest concentration without visible bacterial growth; conditions: Klebsiella pneumoniae, 13883, read-out: 10-F05 MIC µM
# T13 construct: 13883
# Protocol: as §1
# [16] = system: T14, E. coli (KPC+) BAA-2340; experiment: microbe, parasite or virus in culture; parameters: species or system bacterial strain; broth microdilution MIC, OD600, lowest concentration without visible bacterial growth; conditions: Escherichia coli, BAA2340, read-out: 10-F05 MIC µM
# T14 construct: BAA-2340 (KPC+)
# Protocol: as §1
Compound,MIC [1],MIC [2],MIC [3],MIC [4],MIC [5],other results
O=C(CCl)c1cn(-c2cccc(C(F)(F)F)c2)nn1 [10-C09],25 µM,25 µM,100 µM,100 µM,–,–
CC(=O)c1cnccc1F [10-I09-N],–,> 100 µM,> 100 µM,> 100 µM,> 100 µM,–
CC(=O)c1cn(-c2ccc(F)cc2)nn1 [10-F05-N],–,> 100 µM,> 100 µM,> 100 µM,> 100 µM,–
Cn1cc(C(=O)CCl)nn1 [10-M19],50 µM,100 µM,50 µM,50 µM,–,–
O=C(CCl)c1cn(-c2ccc(F)cc2)nn1 [10-F05],2.5 µM,10 µM,25 µM,10 µM,–,"fold decrease in initial velocity [6]: 1.7 fold; in-gel fluorescence competition with 5-TMRIA [7]: indicating 10-F05 specifically reacts with MiaA Cys273; in-gel fluorescence competition with 5-TMRIA [8]: 10-F05 was able to bind with S. aureus FabH (Sa_FabH, Figure 5C); in-gel fluorescence competition with 5-TMRIA [9]: rapid covalent bond formation between 10-F05 and Sf_FabH (Figure 5B); in-gel fluorescence competition with 5-TMRIA [10]: preincubation of 10-F05 decreased the 5-TMRIA labeling in a dose-dependent manner (Figure 5A); MIC [11]: > 100 µM; MIC [12]: > 100 µM; MIC [13]: > 100 µM; MIC [14]: 50 µM; MIC [15]: 50 µM; MIC [16]: 50 µM"
CC(=O)c1ccccn1 [10-J03-N],–,> 100 µM,> 100 µM,> 100 µM,> 100 µM,–
CC(=O)c1cn(-c2cccc(C)c2)nn1 [10-L07-N],–,> 100 µM,> 100 µM,> 100 µM,> 100 µM,–
Cc1cccc(-n2cc(C(=O)CCl)nn2)c1 [10-L07],5 µM,10 µM,50 µM,25 µM,–,–
